According to patent US10377725B2, “Phenyl amino pyrimidine compound or polymorph of salt thereof” (Suzhou Zelgen Biopharmaceuticals Co., Ltd., priority 2015, dated 2019):

Assays:
[1] = hygroscopicity test of polymorphs (Chinese Pharmacopoeia 2010 edition, Appendix XIX J); format: physicochemical; conditions: 25° C.±1° C., saturated ammonium sulfate solution, 24 h
Description: The test was performed according to the guiding principles of drug's hygroscopic test (Chinese Pharmacopoeia 2010 edition, Appendix XIX J).
1. Take 4 dry glass weighing bottles with lids (60 mm of the outer diameter and 30 mm of the height). On the day before the test, the bottles were placed in a glass dryer (“constant temperature and humidity dryer”) where a saturated ammonium sulfate solution was placed, and the glass dryer was placed in the bottom of a constant temperature and humidity box at 25° C.±1° C.
2. After each empty weighing bottle together with its lid were placed in the “constant temperature and humidity dryer” for 24 hours, stabilize precisely the weight of each unit by a set (one weighing bottle+its lid), recorded as m1.
3. A polymorph II sample was taken and tiled in a glass weighing bottle which had been weighed (the thickness of a sample was about 1 mm), and the bottle was covered, the weight of each weighing bottle (one weighing bottle+its lid+the sample) was precisely weighed, recorded as m2.
3. Each sample was placed in the “constant temperature and humidity dryer” for 24 h, and then the weight of each weighing bottle (one weighing bottle+its lid+the sample) was precisely weighed, recorded as m3.
4. The percentage of hygroscopicity weight increase of each sample was calculated (the formula was shown as follows), and it is defined as no or almost no hygroscopicity when the percentage of hygroscopicity weight increase is less than 0.2%. It is defined as slightly hygroscopicity when the percentage of hygroscopicity weight increase is equal or greater than 0.2%, but less than 2.0%. the percentage of weight increase=[(m3−m2)/(m2−m1)]×100%

[2] = accelerated stability test of polymorphs; format: physicochemical; conditions: accelerated test 40±2° C., 75%±5% RH, 6 months; for purity after accelerated test: compared to freshly prepared (0 Month)

| percentage of weight increase [1] [%] | stability of crystal form [2] | purity after accelerated test [2] | SMILES | hygroscopicity [1] | degradated impurity [2] |
| --- | --- | --- | --- | --- | --- |
| 0.24 | very stable | above 99% | Cl.Cl.O.[2H]C1([2H])CN(c2ccc(Nc3nccc(-c4ccc(C(=O)NCC#N)cc4)n3)cc2)CC([2H])([2H])O1 [polymorph II, N-(cyanomethyl)-4-(2-((4-(2′,2′,6′,6′-d4-morpholino)phenyl)amino)pyrimidin-4-yl)benzamide dihydrochloride monohydrate] | slightly hygroscopicity (slightly hygroscopicity when the percentage of hygroscopicity weight increase is equal or greater than 0.2%, but less than 2.0%) | no obvious degradated impurity was observed |
|  | very stable | above 99% | Cl.[2H]C1([2H])CN(c2ccc(Nc3nccc(-c4ccc(C(=O)NCC#N)cc4)n3)cc2)CC([2H])([2H])O1 [polymorph III, N-(cyanomethyl)-4-(2-((4-(2′,2′,6′,6′-d4-morpholino)phenyl)amino)pyrimidin-4-yl)benzamide monohydrochloride] |  | no obvious degradated impurity was observed |
|  | very stable | above 99% | Cl.Cl.[2H]C1([2H])CN(c2ccc(Nc3nccc(-c4ccc(C(=O)NCC#N)cc4)n3)cc2)CC([2H])([2H])O1 [polymorph I, N-(cyanomethyl)-4-(2-((4-(2′,2′,6′,6′-d4-morpholino)phenyl)amino)pyrimidin-4-yl)benzamide dihydrochloride] | slightly hygroscopicity (slightly hygroscopicity when the percentage of hygroscopicity weight increase is equal or greater than 0.2%, but less than 2.0%) | no obvious degradated impurity was observed |
|  | very stable | above 99% | [2H]C1([2H])COCC([2H])([2H])N1c1ccc(Nc2nccc(-c3ccc(C(=O)NCC#N)cc3)n2)cc1 [polymorph V, N-(cyanomethyl)-4-(2-((4-(2′,2′,6′,6′-d4-morpholino)phenyl)amino)pyrimidin-4-yl)benzamide] |  | no obvious degradated impurity was observed |
